Values quoted from earlier work in patent US20220273646A1, “PHARMACEUTICAL COMPOSITION OF TEMOZOLOMIDE” (INTAS PHARMACEUTICALS LTD., priority 2019, published 2022).
Where two headings read alike, the source gives them in different places.

Key:
[1] = extemporaneously prepared oral suspensions from capsules, 4° C.
[2] = solution from powder for intravenous infusion

time found chemically stable [1]: at least 60 days
temozolomide remained intact ([2]; 1.25 mg/mL, 13 weeks at 5° C.): more than 90%
temozolomide remained intact ([2]; 2.5 mg/mL, 9 days at room temperature): more than 90%
Structure (SMILES): Cn1nnc2c(C(N)=O)ncn2c1=O [Temozolomide, 4-methyl-5-oxo-2,3,4,6,8-pentazabicyclo[4.3.0] nona-2,7,9-triene-9-carboxamide]
